US20160046618A1, “Cyclopropyl Fused Thiazin-2-Amine Compounds as Beta-Secretase Inhibitors and Methods of Use” (AMGEN INC., priority 2014, published 2016)

Key:
Recombinant Cat D = Recombinant Cat D (Homo sapiens (Human), UniProt P07339); test: In vitro enzymatic Cathepsin D (Cat D) FRET assay; type: biochemical; conditions: read-out: IC50 IP (μM) CatD
Procedure, shortened: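 Cleavage of a 20 nM fluorophore/quencher peptide by CHO-expressed recombinant Cat D proceeded for one hour at pH 3.5 (0.05 M citrate, 5 mM CHAPS, 10% DMSO final). Tris addition neutralized the pH to end the reaction. Fluorescence was then measured (ex 500 nm/em 580 nm).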

human recombinant BACE2 = human recombinant BACE2 (Homo sapiens (Human), UniProt Q9Y5Z0); test: In vitro enzymatic BACE2 FRET assay; type: biochemical; conditions: read-out: IC50 IP (μM) BACE2 enzyme
Procedure, shortened: (§1)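 Ni-NTA-purified recombinant enzyme incubated 1 h with 50 nM FRET peptide substrate (fluorophore and quencher flanking the BACE cleavage site). Reaction stopped with Tris buffer raising pH to neutrality; cleavage-released fluorescence read at ex 488/em 590 nm.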

human recombinant BACE1 = human recombinant BACE1 (Homo sapiens (Human), UniProt P56817); test: In vitro enzymatic BACE1 FRET assay; type: biochemical; conditions: read-out: IC50 IP (μM) BACE1 enzyme
Procedure, shortened: as §1

[1] = system: Aβ40 in conditioned medium of cells stably expressing Amyloid Precursor Protein (APP); test: In vitro BACE-1 cell-based assay (Aβ40 sandwich ELISA); conditions: read-out: IC50 IP (μM) BACE1 cell
Procedure, shortened: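 APP-stable cells, pre-cultured 24 h at 37° C in DMEM/10% FBS, were treated 24 h with compound in a 10-point series starting at 100 μM or 10 μM (0.1% DMSO final). Secreted Aβ40 in conditioned medium was measured by pAb40/biotin-6E10 sandwich ELISA with Europium time-resolved fluorescence; IC50 from percent inhibition versus concentration.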

Chain of human recombinant BACE1 (P56817 46-501): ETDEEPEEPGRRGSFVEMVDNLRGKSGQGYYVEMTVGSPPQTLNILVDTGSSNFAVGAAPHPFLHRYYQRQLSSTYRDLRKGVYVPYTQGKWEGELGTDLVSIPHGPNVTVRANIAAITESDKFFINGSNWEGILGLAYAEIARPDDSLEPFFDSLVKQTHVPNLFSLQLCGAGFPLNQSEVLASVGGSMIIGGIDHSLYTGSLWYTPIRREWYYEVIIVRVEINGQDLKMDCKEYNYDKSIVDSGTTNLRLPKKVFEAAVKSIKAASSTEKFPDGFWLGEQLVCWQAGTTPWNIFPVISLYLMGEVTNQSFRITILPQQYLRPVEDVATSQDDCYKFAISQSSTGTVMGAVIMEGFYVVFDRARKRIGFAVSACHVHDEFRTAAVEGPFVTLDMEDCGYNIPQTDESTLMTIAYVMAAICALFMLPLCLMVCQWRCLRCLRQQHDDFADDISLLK
Chain of Recombinant Cat D (P07339 65-412): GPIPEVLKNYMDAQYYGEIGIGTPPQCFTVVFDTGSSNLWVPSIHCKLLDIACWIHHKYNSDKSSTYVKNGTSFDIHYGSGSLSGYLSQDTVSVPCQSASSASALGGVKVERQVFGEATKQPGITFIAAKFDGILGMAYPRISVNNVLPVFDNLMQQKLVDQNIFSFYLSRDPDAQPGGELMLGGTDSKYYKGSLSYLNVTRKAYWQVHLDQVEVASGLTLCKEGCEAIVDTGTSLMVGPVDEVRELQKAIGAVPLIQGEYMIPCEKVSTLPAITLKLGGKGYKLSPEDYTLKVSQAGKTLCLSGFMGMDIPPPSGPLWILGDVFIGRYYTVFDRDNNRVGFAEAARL
Chain of human recombinant BACE2 (Q9Y5Z0 63-518): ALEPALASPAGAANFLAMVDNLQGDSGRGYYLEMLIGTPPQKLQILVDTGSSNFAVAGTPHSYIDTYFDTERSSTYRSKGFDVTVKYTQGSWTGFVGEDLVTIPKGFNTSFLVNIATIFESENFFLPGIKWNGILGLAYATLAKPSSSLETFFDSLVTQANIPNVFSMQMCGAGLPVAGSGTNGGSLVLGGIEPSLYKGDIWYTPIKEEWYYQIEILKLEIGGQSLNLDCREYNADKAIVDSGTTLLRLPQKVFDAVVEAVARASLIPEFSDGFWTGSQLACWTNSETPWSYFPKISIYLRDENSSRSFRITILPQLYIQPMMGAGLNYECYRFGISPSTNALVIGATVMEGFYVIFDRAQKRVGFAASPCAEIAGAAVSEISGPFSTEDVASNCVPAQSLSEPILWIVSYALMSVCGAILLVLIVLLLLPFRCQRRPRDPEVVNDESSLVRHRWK

`COC[C@]12C[C@H]1[C@@](C)(c1cc(NC(=O)c3cnc(OCC4(C)CC4)cn3)ccc1F)N=C(N)S2` [Example 1049, N-(3-((1S,5S,6S)-3-amino-1-(methoxymethyl)-5-methyl-2-thia-4-azabicyclo[4.1.0]hept-3-en-5-yl)-4-fluorophenyl)-5-((1-methylcyclopropyl)methoxy)-2-pyrazinecarboxamide] gave an IC50 (Recombinant Cat D) greater than 400 µM, an IC50 (human recombinant BACE2) of 0.18 µM and an IC50 (human recombinant BACE1) of 0.0054 µM. It also gave an IC50 [1] of 0.0035 µM.

In the case of `COC[C@]12C[C@H]1[C@@](C)(c1cc(NC(=O)c3cnc(OCC4(C)COC4)cn3)ccc1F)N=C(N)S2` [Example 1050, N-(3-((1S,5S,6S)-3-amino-1-(methoxymethyl)-5-methyl-2-thia-4-azabicyclo[4.1.0]hept-3-en-5-yl)-4-fluorophenyl)-5-((3-methyl-3-oxetanyl)methoxy)-2-pyrazinecarboxamide], the IC50 (Recombinant Cat D) is reported as greater than 400 µM, the IC50 (human recombinant BACE2) is reported as 1.19 µM and the IC50 (human recombinant BACE1) is reported as 0.03 µM. It also gave an IC50 [1] of 0.035 µM.

For `COC[C@]12C[C@H]1[C@@](C)(c1cc(NC(=O)c3cnc(OCCF)cn3)ccc1F)N=C(N)S2` [Example 1052, N-(3-((1S,5S,6S)-3-amino-1-(methoxymethyl)-5-methyl-2-thia-4-azabicyclo[4.1.0]hept-3-en-5-yl)-4-fluorophenyl)-5-(2-fluoroethoxy)-2-pyrazinecarboxamide], the IC50 (Recombinant Cat D) was greater than 400 µM, the IC50 (human recombinant BACE2) was 0.146 µM and the IC50 (human recombinant BACE1) was 0.016 µM. It also gave an IC50 [1] of 0.0083 µM.

With `COC[C@]12C[C@H]1[C@@](C)(c1cc(NC(=O)c3cnc(OCC4CC4)cn3)ccc1F)N=C(N)S2` [Example 1053, N-(3-((1S,5S,6S)-3-amino-1-(methoxymethyl)-5-methyl-2-thia-4-azabicyclo[4.1.0]hept-3-en-5-yl)-4-fluorophenyl)-5-(cyclopropylmethoxy)-2-pyrazinecarboxamide] the IC50 (Recombinant Cat D) was 1420 µM, the IC50 (human recombinant BACE2) was 0.108 µM and the IC50 (human recombinant BACE1) was 0.0059 µM. It also gave an IC50 [1] of 0.0029 µM.

`COC[C@]12C[C@H]1[C@@](C)(c1cc(NC(=O)c3cnc(OCC4CCC4)cn3)ccc1F)N=C(N)S2` [Example 1054, N-(3-((1S,5S,6S)-3-amino-1-(methoxymethyl)-5-methyl-2-thia-4-azabicyclo[4.1.0]hept-3-en-5-yl)-4-fluorophenyl)-5-(cyclobutylmethoxy)-2-pyrazinecarboxamide] gave an IC50 (Recombinant Cat D) of 862 µM, an IC50 (human recombinant BACE2) of 0.171 µM and an IC50 (human recombinant BACE1) of 0.0014 µM. For the same compound, the IC50 [1] was 0.011 µM.

Work on `COC[C@]12C[C@H]1[C@@](C)(c1cc(NC(=O)c3cnc(OCC4COC4)cn3)ccc1F)N=C(N)S2` [Example 1055, N-(3-((1S,5S,6S)-3-amino-1-(methoxymethyl)-5-methyl-2-thia-4-azabicyclo[4.1.0]hept-3-en-5-yl)-4-fluorophenyl)-5-(3-oxetanylmethoxy)-2-pyrazinecarboxamide] yielded an IC50 (Recombinant Cat D) of 1330 µM, an IC50 (human recombinant BACE2) of 0.498 µM and an IC50 (human recombinant BACE1) of 0.0079 µM. The IC50 [1] was 0.022 µM.

`COC[C@]12C[C@H]1[C@@](C)(c1cc(NC(=O)c3cnc(OCC(C)C)cn3)ccc1F)N=C(N)S2` [Example 1056, N-(3-((1S,5S,6S)-3-amino-1-(methoxymethyl)-5-methyl-2-thia-4-azabicyclo[4.1.0]hept-3-en-5-yl)-4-fluorophenyl)-5-(2-methylpropoxy)-2-pyrazinecarboxamide] gave an IC50 (Recombinant Cat D) of 1240 µM, an IC50 (human recombinant BACE2) of 0.317 µM and an IC50 (human recombinant BACE1) of 0.0014 µM. It also gave an IC50 [1] of 0.018 µM.

`COC[C@]12C[C@H]1[C@@](C)(c1cc(NC(=O)c3cnc(OCC(F)F)cn3)ccc1F)N=C(N)S2` [Example 1057, N-(3-((1S,5S,6S)-3-amino-1-(methoxymethyl)-5-methyl-2-thia-4-azabicyclo[4.1.0]hept-3-en-5-yl)-4-fluorophenyl)-5-(2,2-difluoroethoxy)-2-pyrazinecarboxamide] showed an IC50 (Recombinant Cat D) greater than 400 µM, an IC50 (human recombinant BACE2) of 0.158 µM and an IC50 (human recombinant BACE1) of 0.0023 µM. It also gave an IC50 [1] of 0.0033 µM.

With `COC[C@]12C[C@H]1[C@@](C)(c1cc(NC(=O)c3cnc(OCC4CCO4)cn3)ccc1F)N=C(N)S2` (stereo partly drawn) [Example 1058, N-(3-((1S,5S,6S)-3-amino-1-(methoxymethyl)-5-methyl-2-thia-4-azabicyclo[4.1.0]hept-3-en-5-yl)-4-fluorophenyl)-5-(oxetan-2-ylmethoxy)pyrazine-2-carboxamide] the IC50 (Recombinant Cat D) was greater than 400 µM, the IC50 (human recombinant BACE2) was 0.498 µM and the IC50 (human recombinant BACE1) was greater than 0.016 µM. It also gave an IC50 [1] of 0.01 µM.

With `CC#CCCOc1cnc(C(=O)Nc2cc(F)c(F)c([C@@]3(C)N=C(N)S[C@@]4(COC)C[C@H]43)c2)cn1` [Example 1059, N-(3-((1S,5S,6S)-3-amino-1-(methoxymethyl)-5-methyl-2-thia-4-azabicyclo[4.1.0]hept-3-en-5-yl)-4,5-difluorophenyl)-5-(3-pentyn-1-yloxy)-2-pyrazinecarboxamide] the IC50 (Recombinant Cat D) was 1320 µM, the IC50 (human recombinant BACE2) was 0.069 µM and the IC50 (human recombinant BACE1) was 0.011 µM. For the same compound, the IC50 [1] was 0.02 µM.

With `C#CCCOc1cnc(C(=O)Nc2cc(F)c(F)c([C@@]3(C)N=C(N)S[C@@]4(COC)C[C@H]43)c2)cn1` [Example 1060, N-(3-((1S,5S,6S)-3-amino-1-(methoxymethyl)-5-methyl-2-thia-4-azabicyclo[4.1.0]hept-3-en-5-yl)-4,5-difluorophenyl)-5-(3-butyn-1-yloxy)-2-pyrazinecarboxamide] the IC50 (Recombinant Cat D) was greater than 400 µM, the IC50 (human recombinant BACE2) was 0.13 µM and the IC50 (human recombinant BACE1) was 0.0074 µM. For the same compound, the IC50 [1] was 0.0076 µM.

With `COC[C@]12C[C@H]1[C@@](C)(c1cc(NC(=O)c3cnc(OCC4(C)CC4)cn3)cc(F)c1F)N=C(N)S2` [Example 1061, N-(3-((1S,5S,6S)-3-amino-1-(methoxymethyl)-5-methyl-2-thia-4-azabicyclo[4.1.0]hept-3-en-5-yl)-4,5-difluorophenyl)-5-((1-methylcyclopropyl)methoxy)-2-pyrazinecarboxamide] the IC50 (Recombinant Cat D) was greater than 400 µM, the IC50 (human recombinant BACE2) was 0.17 µM and the IC50 (human recombinant BACE1) was 0.0047 µM. For the same compound, the IC50 [1] was 0.0039 µM.

Work on `COC[C@]12C[C@H]1[C@@](C)(c1cc(NC(=O)c3cnc(OCC4(C)COC4)cn3)cc(F)c1F)N=C(N)S2` [Example 1062, N-(3-((1S,5S,6S)-3-amino-1-(methoxymethyl)-5-methyl-2-thia-4-azabicyclo[4.1.0]hept-3-en-5-yl)-4,5-difluorophenyl)-5-((3-methyl-3-oxetanyl)methoxy)-2-pyrazinecarboxamide] yielded an IC50 (Recombinant Cat D) greater than 400 µM, an IC50 (human recombinant BACE2) of 0.658 µM and an IC50 (human recombinant BACE1) greater than 16 µM. The IC50 [1] was 0.022 µM.

`COC[C@]12C[C@H]1[C@@](C)(c1cc(NC(=O)c3cnc(OCCF)cn3)cc(F)c1F)N=C(N)S2` [Example 1064, N-(3-((1S,5S,6S)-3-amino-1-(methoxymethyl)-5-methyl-2-thia-4-azabicyclo[4.1.0]hept-3-en-5-yl)-4,5-difluorophenyl)-5-(2-fluoroethoxy)-2-pyrazinecarboxamide] gave an IC50 (Recombinant Cat D) greater than 400 µM, an IC50 (human recombinant BACE2) of 0.081 µM and an IC50 (human recombinant BACE1) of 0.0027 µM. For the same compound, the IC50 [1] was 0.0047 µM.

Work on `COC[C@]12C[C@H]1[C@@](C)(c1cc(NC(=O)c3cnc(OCC(F)(F)F)cn3)cc(C)c1F)N=C(N)S2` [Example 1065, N-(3-((1S,5S,6S)-3-amino-1-(methoxymethyl)-5-methyl-2-thia-4-azabicyclo[4.1.0]hept-3-en-5-yl)-4-fluoro-5-methylphenyl)-5-(2,2,2-trifluoroethoxy)-2-pyrazinecarboxamide] yielded an IC50 (Recombinant Cat D) of 1580 µM, an IC50 (human recombinant BACE2) of 0.0636 µM and an IC50 (human recombinant BACE1) of 0.000256 µM. It also gave an IC50 [1] of 0.00294 µM.

`COC[C@]12C[C@H]1[C@@](C)(c1cc(NC(=O)c3ccc(Cl)cn3)cc(C)c1F)N=C(N)S2` [Example 1066, N-(3-((1S,5S,6S)-3-amino-1-(methoxymethyl)-5-methyl-2-thia-4-azabicyclo[4.1.0]hept-3-en-5-yl)-4-fluoro-5-methylphenyl)-5-chloro-2-pyridinecarboxamide] gave an IC50 (Recombinant Cat D) greater than 400 µM, an IC50 (human recombinant BACE2) of 0.00099 µM and an IC50 (human recombinant BACE1) of 0.00161 µM. The IC50 [1] was 0.00347 µM.

`COC[C@]12C[C@H]1[C@@](C)(c1cc(NC(=O)c3cnc(OC4COC4)cn3)ccc1F)N=C(N)S2` [Example 1067, N-(3-((1S,5S,6S)-3-amino-1-(methoxymethyl)-5-methyl-2-thia-4-azabicyclo[4.1.0]hept-3-en-5-yl)-4-fluorophenyl)-5-(oxetan-3-yloxy)pyrazine-2-carboxamide] was tested, and the IC50 (Recombinant Cat D) was 2050 µM, the IC50 (human recombinant BACE2) was 1.63 µM and the IC50 (human recombinant BACE1) was 0.0264 µM. It also gave an IC50 [1] of 0.0238 µM.

With `COC[C@]12C[C@H]1[C@@](C)(c1cc(NC(=O)c3cnc(OCC(C)(C)C)cn3)cc(F)c1F)N=C(N)S2` [Example 1069, N-(3-((1S,5S,6S)-3-amino-1-(methoxymethyl)-5-methyl-2-thia-4-azabicyclo[4.1.0]hept-3-en-5-yl)-4,5-difluorophenyl)-5-(neopentyloxy)pyrazine-2-carboxamide] the IC50 (Recombinant Cat D) was 1060 µM, the IC50 (human recombinant BACE2) was 0.878 µM and the IC50 (human recombinant BACE1) was 0.0174 µM. The IC50 [1] was 0.214 µM.

Compound `COC[C@]12C[C@H]1[C@@](C)(c1cc(NC(=O)c3cnc(OCc4ncco4)cn3)cc(C)c1F)N=C(N)S2` [Example 1071, N-(3-((1S,5S,6S)-3-amino-1-(methoxymethyl)-5-methyl-2-thia-4-azabicyclo[4.1.0]hept-3-en-5-yl)-4-fluoro-5-methylphenyl)-5-(oxazol-2-ylmethoxy)pyrazine-2-carboxamide] has an IC50 (Recombinant Cat D) of 1430 µM, an IC50 (human recombinant BACE2) of 0.0304 µM and an IC50 (human recombinant BACE1) of 0.000768 µM. It also gave an IC50 [1] of 0.00025 µM.
